Experiments:
Assay in all cases: Bliss excess, mean over the matrix (fraction); higher = more synergy
[1] = system: HCC1143 (Breast Carcinoma)
Outline: (§1)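 Cell lines grown in DMEM/F12 or RPMI with 10% FBS were plated in 1536-well plates and held 24 hours at 37°C, 5% CO2 before 72 hours of exposure to two-drug dose matrices, with DMSO typically at 0.2%. CellTiter-Glo 2.0 luminescence gave viability, which was converted to inhibition. Vehicle wells were set to 0 and blank wells to 1. Combination Emax is the second-highest inhibition in the matrix, and Bliss excess is the observed combination effect minus the expected EA + EB − EA·EB, where EA and EB are the single-agent effects.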

A172 (Glioblastoma) = system: A172 (Glioblastoma)
Outline: as §1

[2] = system: SK-LMS-1 (Other Solid Carcinomas)
Outline: as §1

[3] = system: SNU-61 (Colorectal Carcinoma)
Outline: as §1

[4] = system: NOMO-1 (Acute Myeloid Leukemia)
Outline: as §1

[5] = system: GDM-1 (Acute Myeloid Leukemia)
Outline: as §1

[6] = system: HLE (Hepatocellular Carcinoma)
Outline: as §1

[7] = system: SNG-M (Endometrial Carcinoma)
Outline: as §1

MSTO-211H (Mesothelioma) = system: MSTO-211H (Mesothelioma)
Outline: as §1

[8] = system: RCC10RGB (Kidney Carcinoma)
Outline: as §1

[9] = system: MES-SA (Other Solid Carcinomas)
Outline: as §1

H4 (Low Grade Glioma) = system: H4 (Low Grade Glioma)
Outline: as §1

[10] = system: SKN-3 (Head and Neck Carcinoma)
Outline: as §1

[11] = system: 647-V (Bladder Carcinoma)
Outline: as §1

[12] = system: HCC-827 (Lung Adenocarcinoma)
Outline: as §1

MCF7 (Breast Carcinoma) = system: MCF7 (Breast Carcinoma)
Outline: as §1

[13] = system: TYK-nu (Ovarian Carcinoma)
Outline: as §1

[14] = system: EFM-192A (Breast Carcinoma)
Outline: as §1

[15] = system: YT (Other Blood Carcinomas)
Outline: as §1

D-392MG (Glioblastoma) = system: D-392MG (Glioblastoma)
Outline: as §1

Row | Structure (SMILES) | Bliss excess [1] | Bliss excess (A172 (Glioblastoma)) | Bliss excess [2] | Bliss excess [3] | Bliss excess [4] | Bliss excess [5] | Bliss excess [6] | Bliss excess [7] | Bliss excess (MSTO-211H (Mesothelioma)) | Bliss excess [8] | Bliss excess [9] | Bliss excess (H4 (Low Grade Glioma)) | Bliss excess [10] | Bliss excess [11] | Bliss excess [12] | Bliss excess (MCF7 (Breast Carcinoma)) | Bliss excess [13] | Bliss excess [14] | Bliss excess [15] | Bliss excess (D-392MG (Glioblastoma))
1 | COc1cc2c(cc1OCCCCCOc1cc3c(cc1OC)C(=O)N1C=C(C)C[C@H]1C=N3)N=C[C@@H]1CC(C)=CN1C2=O [SG3199] + O=C(c1cc(Cc2n[nH]c(=O)c3ccccc23)ccc1F)N1CCN(C(=O)C2CC2)CC1 [Olaparib] (first compound max 0.001 µM, 7x7, partner max 10 µM) | -0.0216 | 0.0064 | -0.0375 | -0.0453 | -0.0328 | -0.0311 | -0.0323 | -0.0222 | -0.0175 | -0.052 | 0.0626 | -0.0406 | -0.0276 | -0.0289 | -0.0194 | -0.0444 | -0.046 | -0.053 | 0.019 | -0.0623
2 | CCc1c2c(nc3ccc(O)cc13)-c1cc3c(c(=O)n1C2)COC(=O)[C@]3(O)CC [SN-38] + CN(C)CCCOc1ccc(-c2ccc3ncc4c(c3c2)n(C2CCOCC2)c(=O)n4C)cn1 [AZD0156] (first compound max 0.3 µM, 7x7, partner max 1 µM) | 0.0405 | 0.0443 | 0.0274 | -0.0134 | 0.034 | -0.0216 | -0.0434 | -0.0353 | 0.0527 | -0.0262 | -0.0316 | -0.0255 | -0.0209 | 0.0291 | 0.0556 | -0.0388 | -0.0182 | -0.0268 | -0.0872 | 0.0957
3 | C[C@@H](c1ccc2nccn2c1)n1nnc2ncc(-c3cnn(C)c3)nc21 [Savolitinib] + CC1(C)CCC(CN2CCN(c3ccc(C(=O)NS(=O)(=O)c4ccc(NCC5CCOCC5)c([N+](=O)[O-])c4)c(Oc4cnc5[nH]ccc5c4)c3)CC2)=C(c2ccc(Cl)cc2)C1 [Venetoclax] (first compound max 1 µM, 7x7, partner max 1 µM) | -0.0361 | -0.0498 | 0.0121 | -0.0709 | -0.0561 | -0.0236 | -0.0232 | -0.0421 | -0.0501 | -0.0768 | -0.0736 | -0.0399 | -0.0543 | -0.057 | -0.0293 | -0.042 | -0.0478 | -0.0484 | -0.0346 | -0.0454
4 | C[C@@H](c1ccc2nccn2c1)n1nnc2ncc(-c3cnn(C)c3)nc21 [Savolitinib] + Cc1c2c(nn1C)CSCc1cc(n(C)n1)CSc1cc(c3ccccc3c1)OCCCc1c(C(=O)O)n(C)c3c-2c(Cl)ccc13 [AZD5991] (first compound max 1 µM, 7x7, partner max 1 µM) | 0.0108 | -0.0747 | 0.0027 | -0.0429 | 0.0497 | -0.0004 | -0.0053 | 0.0124 | -0.0337 | -0.0371 | -0.0465 | 0.0076 | -0.0758 | -0.0594 | -0.008 | -0.0242 | -0.0393 | -0.0499 | -0.0156 | -0.001
5 | Cn1cnc2c(F)c(Nc3ccc(Br)cc3Cl)c(C(=O)NOCCO)cc21 [Selumetinib] + C=CCn1c(=O)c2cnc(Nc3ccc(N4CCN(C)CC4)cc3)nc2n1-c1cccc(C(C)(C)O)n1 [AZD1775] (first compound max 10 µM, partner max 1 µM) | -0.0112 | -0.126 | 0.0059 | -0.0358 | -0.0509 | -0.0254 | -0.0358 | -0.0444 | -0.0323 | -0.0703 | -0.0289 | -0.0797 | 0.0226 | -0.0359 | -0.026 | -0.079 | -0.0404 | -0.0509 | 0.0002 | -0.0367
6 | Cn1cnc2c(F)c(Nc3ccc(Br)cc3Cl)c(C(=O)NOCCO)cc21 [Selumetinib] + CC(C)n1c(=O)n(C)c2cnc3cc(F)c(-c4ccc(OCCCN5CCCCC5)nc4)cc3c21 [AZD1390] (first compound max 10 µM, 7x7, partner max 0.3 µM) | 0.013 | -0.0389 | -0.0429 | 0.0043 | -0.0617 | -0.0523 | -0.0325 | -0.0348 | -0.0367 | -0.0004 | -0.0335 | -0.0503 | -0.0318 | -0.0481 | -0.0306 | -0.0452 | -0.0523 | -0.0325 | -0.03 | -0.02
7 | Cn1cnc2c(F)c(Nc3ccc(Br)cc3Cl)c(C(=O)NOCCO)cc21 [Selumetinib] + CCN(CCO)CCCOc1ccc2c(Nc3cc(CC(=O)Nc4cccc(F)c4)[nH]n3)ncnc2c1 [AZD2811] (first compound max 10 µM, 7x7, partner max 1 µM) | 0.0298 | -0.0731 | -0.0047 | -0.0026 | 0.0333 | -0.0345 | -0.0029 | -0.0706 | -0.0137 | -0.0658 | -0.0248 | -0.0091 | -0.0166 | -0.0038 | -0.0711 | -0.0309 | -0.0169 | -0.0285 | -0.0336 | -0.0304
8 | Cn1cnc2c(F)c(Nc3ccc(Br)cc3Cl)c(C(=O)NOCCO)cc21 [Selumetinib] + C[C@@H]1COCCN1C2=NC(=NC(=C2)C3(CC3)[S@](=N)(=O)C)C4=C5C=CNC5=NC=C4 [AZD6738] (first compound max 10 µM, 7x7, partner max 10 µM) | -0.0207 | -0.0564 | 0.0453 | 0.065 | -0.0299 | 0.0409 | -0.0665 | -0.0561 | -0.0453 | 0.119 | 0.0021 | -0.0067 | 0.0257 | 0.0218 | -0.0172 | -0.0558 | 0.089 | -0.0365 | -0.064 | 0.0013
9 | CC(=O)Nc1cccc(-n2c(=O)n(C3CC3)c(=O)c3c(Nc4ccc(I)cc4F)n(C)c(=O)c(C)c32)c1 [Trametinib] + Cc1nc(-c2cn3c(n2)-c2ccc(-c4cnn(C(C)(C)C(N)=O)c4)cc2OCC3)n(C(C)C)n1 [Taselisib] (first compound max 1 µM, 7x7, partner max 10 µM) | 0.0615 | 0.0645 | 0.0854 | 0.0995 | 0.0306 | 0.0571 | -0.0291 | 0.102 | 0.122 | -0.0186 | 0.062 | 0.132 | 0.11 | 0.106 | 0.0731 | 0.0979 | 0.138 | 0.0042 | -0.0043 | 0.137
10 | CC1(C)CCC(CN2CCN(c3ccc(C(=O)NS(=O)(=O)c4ccc(NCC5CCOCC5)c([N+](=O)[O-])c4)c(Oc4cnc5[nH]ccc5c4)c3)CC2)=C(c2ccc(Cl)cc2)C1 [Venetoclax] + C1CN(CCC1(C(=O)N[C@@H](CCO)C2=CC=C(C=C2)Cl)N)C3=NC=NC4=C3C=CN4 [Capivasertib] (first compound max 1 µM, 7x7, partner max 3 µM) | -0.0004 | -0.0461 | -0.0485 | -0.0321 | -0.0342 | -0.0325 | -0.0132 | 0.0086 | -0.0496 | -0.0402 | -0.0597 | -0.0366 | -0.033 | -0.0247 | -0.0278 | 0.0076 | -0.0343 | -0.046 | 0.0073 | -0.0437
11 | CC1(C)CCC(CN2CCN(c3ccc(C(=O)NS(=O)(=O)c4ccc(NCC5CCOCC5)c([N+](=O)[O-])c4)c(Oc4cnc5[nH]ccc5c4)c3)CC2)=C(c2ccc(Cl)cc2)C1 [Venetoclax] + C=CCn1c(=O)c2cnc(Nc3ccc(N4CCN(C)CC4)cc3)nc2n1-c1cccc(C(C)(C)O)n1 [AZD1775] (first compound max 1 µM, partner max 1 µM) | -0.0192 | -0.0833 | -0.0306 | -0.0321 | 0.0689 | 0.132 | -0.0648 | -0.0002 | -0.0183 | -0.0374 | -0.0606 | 0.0732 | -0.0949 | -0.0274 | -0.0764 | -0.0227 | -0.107 | -0.0253 | -0.0039 | 0.0593
12 | CC1(C)CCC(CN2CCN(c3ccc(C(=O)NS(=O)(=O)c4ccc(NCC5CCOCC5)c([N+](=O)[O-])c4)c(Oc4cnc5[nH]ccc5c4)c3)CC2)=C(c2ccc(Cl)cc2)C1 [Venetoclax] + CCN(CCO)CCCOc1ccc2c(Nc3cc(CC(=O)Nc4cccc(F)c4)[nH]n3)ncnc2c1 [AZD2811] (first compound max 1 µM, 7x7, partner max 1 µM) | 0.0005 | -0.0296 | -0.0616 | -0.0084 | 0.182 | 0.0676 | 0.005 | -0.0246 | -0.0066 | -0.066 | 0.0315 | 0.0007 | -0.0167 | 0.0533 | -0.015 | 0.0142 | -0.0266 | 0.0097 | -0.0328 | -0.0351
13 | CC1(C)CCC(CN2CCN(c3ccc(C(=O)NS(=O)(=O)c4ccc(NCC5CCOCC5)c([N+](=O)[O-])c4)c(Oc4cnc5[nH]ccc5c4)c3)CC2)=C(c2ccc(Cl)cc2)C1 [Venetoclax] + CN(C)CCCOc1ccc(-c2ccc3ncc4c(c3c2)n(C2CCOCC2)c(=O)n4C)cn1 [AZD0156] (first compound max 1 µM, 7x7, partner max 1 µM) | -0.0051 | -0.0482 | 0.001 | 0.0062 | 0.0226 | -0.0235 | -0.0463 | -0.06 | -0.0243 | -0.0677 | -0.0333 | -0.0861 | -0.0221 | -0.0036 | -0.0453 | -0.0152 | -0.0516 | -0.0508 | 0.0204 | -0.0225
14 | CC1(C)CCC(CN2CCN(c3ccc(C(=O)NS(=O)(=O)c4ccc(NCC5CCOCC5)c([N+](=O)[O-])c4)c(Oc4cnc5[nH]ccc5c4)c3)CC2)=C(c2ccc(Cl)cc2)C1 [Venetoclax] + COc1cc(Nc2ncc3c(n2)-c2ccc(Cl)cc2C(c2c(F)cccc2OC)=NC3)ccc1C(=O)O [Alisertib] (first compound max 1 µM, 7x7, partner max 10 µM) | 0.0244 | -0.108 | 0.0215 | -0.0091 | 0.0906 | 0.0312 | 0.0066 | -0.0189 | 0.0116 | -0.0943 | -0.0225 | -0.0124 | -0.0565 | -0.0092 | -0.0795 | 0.0079 | -0.0415 | -0.0548 | 0.1 | -0.042

Source: the supplement of paper PMC11061612
